{
  "source": "patent US4397868A",
  "about": "“Method of treating atherosclerosis with trisubstituted ureas” (American Cyanamid Company, priority 1982, dated 1983)",
  "system": "fatty acyl CoA:cholesterol acyl transferase (ACAT)",
  "experiment": "In vitro inhibition of fatty acyl CoA:cholesterol acyl transferase (ACAT), rat adrenal microsomal supernatant",
  "assay_type": "biochemical",
  "settings": "test compound final concentration 5.2 μg./ml., 14C-oleoyl CoA, 37° C., 10 minutes",
  "protocol": "A representative compound of the present invention was assayed for a biological activity related to potential use as an antiatherosclerotic agent. The compound was tested in vitro for its ability to inhibit the enzyme fatty acyl CoA:cholesterol acyl transferase (ACAT).\nA representative compound was tested for its ability to inhibit ACAT according to the following procedure:\nRat adrenals were homogenized in 0.2 M monobasic potassium phosphate buffer, pH 7.4, and centrifuged at 1000 times gravity for 15 minutes at 5° C. The supernatant, containing the microsomal fraction, served as the source of the cholesterol-esterifying enzyme, fatty acyl CoA:cholesterol acyl transferase (ACAT). A mixture comprising 50 parts of adrenal supernatant, 10 parts of albumin (BSA) (50 mg./ml.), 3 parts of test compound (final concentration 5.2 μg./ml.) and 500 parts of buffer was preincubated at 37° C. for 10 minutes. After treatment with 20 parts of oleoyl CoA (^14 C-0.4 μCi) the mixture was incubated at 37° C. for 10 minutes. A control mixture, omitting the test compound, was prepared and treated in the same manner. The lipids from the incubation mixture were extracted into an organic solvent and separated by thin-layer chromatography. The cholesterol ester fraction was counted in a scintillation counter. […]",
  "data": [
    {"compound": "CCCCN(Cc1ccccc1)C(=O)Nc1ccccc1", "note": "[Example 1, 1-Benzyl-1-(n-butyl)-3-(phenyl)urea]", "values": [
      {"measurement": "inhibited ACAT", "value": 82, "unit": "%"}
    ]}
  ]
}
